This is an account of results in patent publication US7910751B2, “Heterocyclidene acetamide derivative” (Mochida Pharmaceutical Co., Ltd., priority 2005, dated 2011).

For the assay, the target named is T1, human TRPV1 (Homo sapiens, UniProt Q8NER1).
T1 construct: expressed in transfected cells; host or cells: CHO-K1
T1 sequence (Q8NER1 whole entry): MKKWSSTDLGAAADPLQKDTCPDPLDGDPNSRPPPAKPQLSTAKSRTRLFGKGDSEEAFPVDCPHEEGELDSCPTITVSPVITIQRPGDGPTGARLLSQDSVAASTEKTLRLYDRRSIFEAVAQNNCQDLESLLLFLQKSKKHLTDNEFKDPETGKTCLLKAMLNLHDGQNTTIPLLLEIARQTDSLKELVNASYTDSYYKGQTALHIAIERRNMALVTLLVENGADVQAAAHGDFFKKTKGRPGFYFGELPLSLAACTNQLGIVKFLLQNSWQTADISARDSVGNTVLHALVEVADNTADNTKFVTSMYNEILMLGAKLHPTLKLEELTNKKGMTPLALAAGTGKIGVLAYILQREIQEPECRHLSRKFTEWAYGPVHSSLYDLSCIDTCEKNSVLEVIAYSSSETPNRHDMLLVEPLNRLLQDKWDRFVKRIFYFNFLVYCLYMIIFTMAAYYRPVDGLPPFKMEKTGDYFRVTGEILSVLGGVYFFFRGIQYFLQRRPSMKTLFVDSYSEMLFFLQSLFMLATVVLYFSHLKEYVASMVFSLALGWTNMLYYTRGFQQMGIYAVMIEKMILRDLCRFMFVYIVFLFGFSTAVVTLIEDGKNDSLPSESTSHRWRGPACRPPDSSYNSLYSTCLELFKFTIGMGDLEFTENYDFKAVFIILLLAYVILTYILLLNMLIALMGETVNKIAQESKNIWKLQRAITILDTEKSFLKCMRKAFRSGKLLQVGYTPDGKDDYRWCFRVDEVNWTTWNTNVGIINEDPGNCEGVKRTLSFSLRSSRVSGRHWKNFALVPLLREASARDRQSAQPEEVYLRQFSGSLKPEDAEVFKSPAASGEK
Kind of assay: Measurement of capsaicin-induced Ca influx in human TRPV1 transformed CHO cell line using FDSS-6000. Type of assay: cell-based. To be noted: concentration at which the capsaicin concentration-reaction curve is shifted two times to the right, human TRPV1 transformed CHO cells.
Turning to `O=C(/C=C1\CCCOc2cc(C(F)(F)F)ccc21)Nc1cccc2c1CC(O)CN2` (stereo not drawn) [Example 218, (E)-2-(8-trifluoromethyl-3,4-dihydrobenzo[b]oxepin-5(2H)-ylidene)-N-(3-hydroxy-1,2,3,4-tetrahydroquinolin-5-yl)acetamide], the “A2 VALUE” was “A (compounds of the present invention having an A2 value of less than 100 nM are represented by A)”.

In the case of `O=C(/C=C1\CCOc2cc(C(F)(F)F)ccc21)Nc1cccc2c1CC(O)CC2` (stereo not drawn) [Example 70, (E)-2-(7-trifluoromethyl-chroman-4-ylidene)-N-(7-hydroxy-5,6,7,8-tetrahydronaphthalen-1-yl)acetamide], the “A2 VALUE” is on record as “A (compounds of the present invention having an A2 value of less than 100 nM are represented by A)”.

As for `O=C(/C=C1\CCN(C(=O)C2(F)CCCC2)c2cc(C(F)(F)F)ccc21)Nc1cccc2c1CC(O)CC2` (stereo not drawn) [Example 115, (E)-2-(1-(1-fluorocyclopentanecarbonyl)-7-trifluoromethyl-2,3-dihydroquinolin-4(1H)-ylidene)-N-(7-hydroxy-5,6,7,8-tetrahydronaphthalen-1-yl)acetamide], the “A2 VALUE” is given as “A (compounds of the present invention having an A2 value of less than 100 nM are represented by A)”.

As to `O=C(/C=C1\CCCOc2cc(C(F)(F)F)ccc21)Nc1ccnc2ncnn12` [Example 44, (E)-N-([1,2,4]triazolo[1,5-a]pyrimidin-7-yl)-2-(8-trifluoromethyl-3,4-dihydrobenzo[b]oxepin-5(2H)-ylidene)acetamide], the “A2 VALUE” is reported as “B (compounds having an A2 value of 100 nM or more are represented by B)”.

Turning to `O=C(/C=C1\CCN(C(=O)C2CCCC2)c2cc(C(F)(F)F)ccc21)Nc1ccc2cccnc2c1` [Example 73, (E)-2-(1-cyclopentanecarbonyl-7-trifluoromethyl-2,3-dihydroquinolin-4(1H)-ylidene)-N-(quinolin-7-yl)acetamide], the “A2 VALUE” is on record as “A (compounds of the present invention having an A2 value of less than 100 nM are represented by A)”.

As to `O=C(/C=C1\CCCOc2cc(C(F)(F)F)ccc21)Nc1ccc2c(c1)NCCC2` [Example 167, (E)-2-(8-trifluoromethyl-3,4-dihydrobenzo[b]oxepin-5(2H)-ylidene)-N-(1,2,3,4-tetrahydroquinolin-7-yl)acetamide], the “A2 VALUE” is listed as “A (compounds of the present invention having an A2 value of less than 100 nM are represented by A)”.

`O=C(/C=C1\CCCOc2cc(C(F)(F)F)c(F)cc21)Nc1cccc2c1CC(O)CC2` (stereo not drawn) [Example 248, (E)-2-(7-fluoro-8-trifluoromethyl-3,4-dihydrobenzo[b]oxepin-5-(2H)-ylidene)-N-(7-hydroxy-5,6,7,8-tetrahydronaphthalen-1-yl)acetamide]: the “A2 VALUE” was “A (compounds of the present invention having an A2 value of less than 100 nM are represented by A)”.

For the molecule `CC(=O)N1CCC/C(=C\C(=O)Nc2ccc3cccnc3c2)c2ccc(C(F)(F)F)cc21` [Example 195, (E)-2-(1-acetyl-8-trifluoromethyl-1,2,3,4-tetrahydro-5H-benzo[b]azepin-5-ylidene)-N-(quinolin-7-yl)acetamide], the “A2 VALUE” is reported as “B (compounds having an A2 value of 100 nM or more are represented by B)”.

Turning to `O=C(/C=C1\CCCOc2cc(C(F)(F)F)ccc21)Nc1cccc2c(O)cccc12` [Example 150, (E)-2-(8-trifluoromethyl-3,4-dihydrobenzo[b]oxepin-5(2H)-ylidene)-N-(5-hydroxynaphthalen-1-yl)acetamide], the “A2 VALUE” was “A (compounds of the present invention having an A2 value of less than 100 nM are represented by A)”.

In the case of `O=C(/C=C1\CCCOc2cc(C(F)(F)F)ccc21)Nc1cccc2cnccc12` [Example 11, (E)-2-(8-trifluoromethyl-3,4-dihydrobenzo[b]oxepin-5(2H)-ylidene)-N-(isoquinolin-5-yl)acetamide], the “A2 VALUE” is listed as “A (compounds of the present invention having an A2 value of less than 100 nM are represented by A)”.

Take `COc1ccc2cccc(NC(=O)/C=C3\CCCOc4cc(C(F)(F)F)ccc43)c2c1` [Example 129, (E)-2-(8-trifluoromethyl-3,4-dihydrobenzo[b]oxepin-5(2H)-ylidene)-N-(7-methoxynaphthalen-1-yl)acetamide]: the “A2 VALUE” was “B (compounds having an A2 value of 100 nM or more are represented by B)”.

For the molecule `O=C(/C=C1\CCCOc2cc(C(F)(F)F)ccc21)Nc1cccc2cn[nH]c12` [Example 254, (E)-2-(8-trifluoromethyl-3,4-dihydrobenzo[b]oxepin-5(2H)-ylidene)-N-(1H-indazol-7-yl)acetamide], the “A2 VALUE” was “A (compounds of the present invention having an A2 value of less than 100 nM are represented by A)”.

As to `CC(C)(C)c1ccc2c(c1)OCC/C2=C\C(=O)NC1CCc2cccnc2C1` (stereo not drawn) [Example 3, (E)-2-(7-tert-butyl-chroman-4-ylidene)-N-(5,6,7,8-tetrahydroquinolin-7-yl)acetamide], the “A2 VALUE” is listed as “A (compounds of the present invention having an A2 value of less than 100 nM are represented by A)”.

`Cc1ccc(S(=O)(=O)N2CC/C(=C\C(=O)Nc3ccc4cccnc4c3)c3ccc(C(F)(F)F)cc32)cc1` [Example 98, (E)-2-(7-trifluoromethyl-2,3-dihydro-1-(4-methylbenzenesulfonyl)quinolin-4(1H)-ylidene)-N-(quinolin-7-yl)acetamide]: the “A2 VALUE” is on record as “A (compounds of the present invention having an A2 value of less than 100 nM are represented by A)”.

With `O=C(/C=C1\CCN(C(=O)C2CCC(F)(F)CC2)c2cc(C(F)(F)F)ccc21)Nc1cccc2c1CC(O)CC2` (stereo not drawn) [Example 85, (E)-2-(1-(4,4-difluorocyclohexanecarbonyl)-7-trifluoromethyl-2,3-dihydroquinolin-4(1H)-ylidene)-N-(7-hydroxy-5,6,7,8-tetrahydronaphthalen-1-yl)acetamide], the “A2 VALUE” is reported as “A (compounds of the present invention having an A2 value of less than 100 nM are represented by A)”.

On to `O=C(/C=C1\CCCOc2cc(C(F)(F)F)ccc21)Nc1ccc2ccn(CCO)c2c1` [Example 151, (E)-2-(8-trifluoromethyl-3,4-dihydrobenzo[b]oxepin-5(2H)-ylidene)-N-(1-(2-hydroxyethyl)indol-6-yl)acetamide], for which the “A2 VALUE” is “A (compounds of the present invention having an A2 value of less than 100 nM are represented by A)”.

On to `CCCCC(=O)N1CC/C(=C\C(=O)Nc2cccc3ccc(O)cc23)c2ccc(C(F)(F)F)cc21` [Example 74, (E)-2-(1-pentanoyl-7-trifluoromethyl-2,3-dihydroquinolin-4(1H)-ylidene)-N-(7-hydroxynaphthalen-1-yl)acetamide], for which the “A2 VALUE” was “A (compounds of the present invention having an A2 value of less than 100 nM are represented by A)”.

Regarding `O=C(/C=C1\CCN(C(=O)C2CCC2)c2cc(C(F)(F)F)ccc21)Nc1cccc2c1CC(O)CC2` (stereo not drawn) [Example 84, (E)-2-(1-cyclobutanecarbonyl-7-trifluoromethyl-2,3-dihydroquinolin-4(1H)-ylidene)-N-(7-hydroxy-5,6,7,8-tetrahydronaphthalen-1-yl)acetamide], the “A2 VALUE” is reported as “A (compounds of the present invention having an A2 value of less than 100 nM are represented by A)”.
